13 compounds from patent US8765746B2 (Millennium Pharmaceuticals, Inc., priority 2010, dated 2014) can be followed below.

Holding throughout (format): biochemical
The target in one assay is T1, PI3Kdelta (Homo sapiens, UniProt O00329).
T1 construct: His (N); host or cells: SF9 insect cells (baculovirus)
Put plainly: Human PI3K delta enzyme assay (HTRF, as for PI3K alpha). The following applies: for inhibition at 1.11 µM: read-out: PI3Kdelta % inh. From the text: (§1) The catalytic subunits of PI3Ks are cloned into either pDEST8(p110 alpha) or pDEST10(p110beta, p110delta, and p110gamma) as N-terminal His tagged fusion proteins using the Gateway system (Invitrogen, catalog#11804-010 for pDEST8 and 11806-015 for pDEST10). The sequences are verified before recombinant protein expression using the Baculovirus Expression System with Gateway® Technology. The accession numbers for the subunits are as follows:
(§2) The regulatory subunits of PI3Ks are cloned into pDEST8 as un-tagged protein using the Gateway system (Catalog#11804-010). The sequences are verified before recombinant protein expression using the Baculovirus Expression System with Gateway® Technology. The accession numbers for the subunits are as follows:
(§3) For expression of the p110 complexes, the p85 (MOI of 4) is co-infected with p110 alpha, beta, and delta respectively (1MOI) in SF9 cells and harvested at 60 hours post co-infection. P110 gamma was infected at 1 MOI and harvested at 60 hours post infection.
(§4) For purification, PI3Ks are purified by Ni-NTA Agarose (Qiagen #30250) followed by Mono Q 10/100 GL (Ge Healthcare #17-5167-01). VPS34 is purified by Glutathione Sepharose 4 Fast Flow (GE Healthcare #17-5132-03) followed by HiTrap Q (GE Healthcare #17-1153-01).
(§5) 0.5 uL compounds in DMSO are added to wells of a 384 well microtitre plate (Corning 3575). At room temperature: 10 ul PI3K reaction buffer (50 mM Hepes, 5 mM DTT, 150 mM NaCl, 10 mM beta-glycerophosphate, 10 mM MgCl2, 0.25 mM sodium cholate and 0.001% CHAPS, pH 7.00) containing ATP (25 uM, Promega) is added followed immediately by 10 ul PI3K reaction buffer containing di-C8 PI(4,5)P2 (3.5 uM, CellSignals) and PI3Kalpha (0.4875 nM, Millennium Protein Sciences Group) and the mixture is incubated with shaking at room temperature for 30 minutes. Then 5 ul PI3K stop mix (50 mM Hepes, 5 mM DTT, 150 mM NaCl, 0.01% Tween-20, 15 mM EDTA and 25 nM biotin-PI(3,4,5)P3 (Echelon) is added to quench the reaction followed immediately by addition of 5 ul HTRF detection mix (50 mM Hepes, 5 mM DTT, 150 mM NaCl, 0.01% Tween-20, 40 mM KF, 10 nM GST:GRP-1 PH domain (Millennium Protein Sciences Group), 15 nM Streptavidin-XL (CisBio) and 0.375 nM anti-GST Eu++ antibody (CisBio) at pH 7.00). The plates are then incubated for 1 hour at room temperature with shaking and then read on a BMG PheraStar Plus reader.
(§6) 2) Human PI3K beta, delta and gamma isoforms are tested using the procedure described for PI3K alpha above but with the following changes: PI3K beta (5.25 nM), PI3K delta (0.75 nM) and PI3K gamma (5 nM). All isoforms supplied by Millennium Protein Science Group.
Background: TR-FRET usually uses a lanthanide donor and a delayed reading to cut background.

A further assay addresses T2, PI3Kalpha (Homo sapiens, UniProt P42336).
T2 construct: His (N); host or cells: SF9 insect cells (baculovirus)
Description: Human PI3Kα enzyme assay (HTRF). The following applies: for inhibition at 1.11 µM: read-out: PI3Kalpha % inh; for PI3Kalpha % inh: at 1.11 μM.
Source text: as §1, §2, §3, §4
1) Human PI3Kα enzyme assay method
as §5

The next assay concerns the target T3, PI3Kbeta (Homo sapiens, UniProt P42338).
T3 construct: His (N); host or cells: SF9 insect cells (baculovirus)
Description: Human PI3K beta enzyme assay (HTRF, as for PI3K alpha). The following applies: at 1.11 μM; for inhibition at 1.11 µM: read-out: PI3Kbeta % inh.
Source text: as §1, §2, §3, §4, §5, §6

A further assay addresses T4, PI3Kgamma (Homo sapiens, UniProt P48736).
T4 construct: His (N); host or cells: SF9 insect cells (baculovirus)
Put plainly: Human PI3K gamma enzyme assay (HTRF, as for PI3K alpha). The following applies: for inhibition at 1.11 µM: read-out: PI3Kgamma % inh.
Source text: as §1, §2, §3, §4, §5, §6

T3 sequence (P42338 whole entry): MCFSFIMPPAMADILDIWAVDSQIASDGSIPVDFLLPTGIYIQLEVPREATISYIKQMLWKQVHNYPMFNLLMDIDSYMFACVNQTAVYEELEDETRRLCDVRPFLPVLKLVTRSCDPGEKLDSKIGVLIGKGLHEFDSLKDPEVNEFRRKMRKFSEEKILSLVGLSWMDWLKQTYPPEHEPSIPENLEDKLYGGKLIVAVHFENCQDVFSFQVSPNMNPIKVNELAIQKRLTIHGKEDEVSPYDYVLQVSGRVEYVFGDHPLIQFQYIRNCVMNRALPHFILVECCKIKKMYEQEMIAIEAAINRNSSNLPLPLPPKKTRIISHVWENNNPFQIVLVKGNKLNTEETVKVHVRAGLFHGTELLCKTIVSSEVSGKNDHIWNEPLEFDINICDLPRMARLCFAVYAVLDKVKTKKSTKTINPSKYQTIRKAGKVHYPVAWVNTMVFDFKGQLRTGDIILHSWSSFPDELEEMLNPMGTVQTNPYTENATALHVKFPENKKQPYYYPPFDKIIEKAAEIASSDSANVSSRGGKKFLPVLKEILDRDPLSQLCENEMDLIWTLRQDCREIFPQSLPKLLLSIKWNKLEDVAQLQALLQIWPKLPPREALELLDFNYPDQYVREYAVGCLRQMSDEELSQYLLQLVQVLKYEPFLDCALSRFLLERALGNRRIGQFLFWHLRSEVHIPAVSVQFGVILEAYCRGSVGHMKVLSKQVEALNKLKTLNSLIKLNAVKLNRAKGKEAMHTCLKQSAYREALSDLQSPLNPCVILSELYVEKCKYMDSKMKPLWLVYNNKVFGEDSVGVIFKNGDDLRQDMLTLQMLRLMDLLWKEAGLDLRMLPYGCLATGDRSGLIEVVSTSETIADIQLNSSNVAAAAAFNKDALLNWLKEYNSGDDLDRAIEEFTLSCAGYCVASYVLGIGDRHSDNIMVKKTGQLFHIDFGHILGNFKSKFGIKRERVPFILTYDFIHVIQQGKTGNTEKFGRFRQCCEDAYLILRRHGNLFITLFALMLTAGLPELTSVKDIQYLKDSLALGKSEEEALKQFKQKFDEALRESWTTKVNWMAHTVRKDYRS
T3 sequence (P27986 whole entry partner): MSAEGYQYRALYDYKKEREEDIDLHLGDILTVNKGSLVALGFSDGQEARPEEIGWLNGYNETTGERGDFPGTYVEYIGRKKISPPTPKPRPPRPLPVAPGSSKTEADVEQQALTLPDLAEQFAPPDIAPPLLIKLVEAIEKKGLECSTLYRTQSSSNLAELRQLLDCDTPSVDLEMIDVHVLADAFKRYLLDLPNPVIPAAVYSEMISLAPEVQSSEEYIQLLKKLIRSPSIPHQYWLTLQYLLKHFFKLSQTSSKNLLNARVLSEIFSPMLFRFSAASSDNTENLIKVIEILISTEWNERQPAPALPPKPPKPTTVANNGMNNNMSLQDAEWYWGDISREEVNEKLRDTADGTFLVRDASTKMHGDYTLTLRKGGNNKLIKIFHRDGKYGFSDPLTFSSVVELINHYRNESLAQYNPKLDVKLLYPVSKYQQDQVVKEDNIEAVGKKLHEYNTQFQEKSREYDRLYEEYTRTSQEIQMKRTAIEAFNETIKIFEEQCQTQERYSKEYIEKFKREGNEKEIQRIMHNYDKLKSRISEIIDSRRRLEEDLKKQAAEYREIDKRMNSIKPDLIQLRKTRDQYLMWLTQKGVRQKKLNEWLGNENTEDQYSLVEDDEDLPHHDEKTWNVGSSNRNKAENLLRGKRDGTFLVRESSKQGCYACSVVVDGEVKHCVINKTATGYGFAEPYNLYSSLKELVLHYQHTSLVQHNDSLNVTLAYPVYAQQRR
T2 sequence (P42336 whole entry): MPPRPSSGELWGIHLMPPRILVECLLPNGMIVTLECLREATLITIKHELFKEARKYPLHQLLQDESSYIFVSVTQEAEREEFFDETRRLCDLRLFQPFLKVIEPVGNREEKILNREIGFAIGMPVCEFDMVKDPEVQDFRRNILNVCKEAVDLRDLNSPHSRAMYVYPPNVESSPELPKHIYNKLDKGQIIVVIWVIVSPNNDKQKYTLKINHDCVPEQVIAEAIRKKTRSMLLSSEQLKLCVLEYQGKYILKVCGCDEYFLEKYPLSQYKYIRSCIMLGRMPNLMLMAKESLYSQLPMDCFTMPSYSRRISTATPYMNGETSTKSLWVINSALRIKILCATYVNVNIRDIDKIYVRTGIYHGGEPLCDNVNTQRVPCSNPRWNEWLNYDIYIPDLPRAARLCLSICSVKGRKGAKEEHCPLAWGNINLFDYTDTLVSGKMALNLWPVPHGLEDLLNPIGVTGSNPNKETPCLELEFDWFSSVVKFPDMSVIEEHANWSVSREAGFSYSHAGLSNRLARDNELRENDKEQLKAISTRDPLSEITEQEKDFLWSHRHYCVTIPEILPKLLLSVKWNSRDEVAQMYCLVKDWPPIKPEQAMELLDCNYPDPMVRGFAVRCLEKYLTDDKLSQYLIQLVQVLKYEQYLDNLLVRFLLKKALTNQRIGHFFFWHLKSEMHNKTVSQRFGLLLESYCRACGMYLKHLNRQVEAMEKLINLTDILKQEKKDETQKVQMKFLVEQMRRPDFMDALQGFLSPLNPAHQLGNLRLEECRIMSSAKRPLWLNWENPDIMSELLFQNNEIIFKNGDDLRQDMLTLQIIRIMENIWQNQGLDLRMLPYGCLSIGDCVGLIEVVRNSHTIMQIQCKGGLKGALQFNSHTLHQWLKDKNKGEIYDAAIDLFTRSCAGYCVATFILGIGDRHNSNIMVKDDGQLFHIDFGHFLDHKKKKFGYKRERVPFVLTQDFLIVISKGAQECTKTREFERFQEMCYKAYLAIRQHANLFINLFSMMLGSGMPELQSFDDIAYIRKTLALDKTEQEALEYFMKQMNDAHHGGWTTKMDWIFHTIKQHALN
T2 sequence (P27986 whole entry partner): as the sequence (P27986 whole entry partner) above
T4 sequence (P48736 whole entry): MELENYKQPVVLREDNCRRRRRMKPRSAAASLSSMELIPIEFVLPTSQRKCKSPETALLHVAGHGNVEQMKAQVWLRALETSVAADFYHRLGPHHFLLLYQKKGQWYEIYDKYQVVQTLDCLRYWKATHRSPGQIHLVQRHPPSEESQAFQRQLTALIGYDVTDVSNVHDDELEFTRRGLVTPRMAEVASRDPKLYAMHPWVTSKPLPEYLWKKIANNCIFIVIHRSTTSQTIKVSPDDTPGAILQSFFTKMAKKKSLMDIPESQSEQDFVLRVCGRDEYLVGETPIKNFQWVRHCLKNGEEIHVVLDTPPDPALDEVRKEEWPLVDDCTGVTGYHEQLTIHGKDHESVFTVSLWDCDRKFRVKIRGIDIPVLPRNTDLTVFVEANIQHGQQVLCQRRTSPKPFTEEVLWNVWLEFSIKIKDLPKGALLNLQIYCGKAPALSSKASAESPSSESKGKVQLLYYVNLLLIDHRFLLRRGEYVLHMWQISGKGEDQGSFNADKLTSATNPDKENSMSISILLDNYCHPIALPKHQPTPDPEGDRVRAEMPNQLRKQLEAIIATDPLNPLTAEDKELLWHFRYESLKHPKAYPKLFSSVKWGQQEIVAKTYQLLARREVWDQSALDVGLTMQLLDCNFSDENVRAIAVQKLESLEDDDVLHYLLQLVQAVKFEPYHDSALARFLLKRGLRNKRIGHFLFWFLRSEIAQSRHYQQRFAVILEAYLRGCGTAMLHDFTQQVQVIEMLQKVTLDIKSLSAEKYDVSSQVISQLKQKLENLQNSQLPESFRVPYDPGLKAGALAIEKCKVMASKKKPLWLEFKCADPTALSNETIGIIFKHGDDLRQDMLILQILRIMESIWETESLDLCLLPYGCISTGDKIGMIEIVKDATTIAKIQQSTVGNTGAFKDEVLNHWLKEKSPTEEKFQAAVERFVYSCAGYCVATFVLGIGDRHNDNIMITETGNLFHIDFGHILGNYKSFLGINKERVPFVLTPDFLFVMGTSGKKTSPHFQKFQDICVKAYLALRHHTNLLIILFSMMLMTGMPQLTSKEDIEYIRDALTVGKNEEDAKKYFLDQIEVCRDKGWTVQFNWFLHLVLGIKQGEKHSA
T1 sequence (O00329 whole entry): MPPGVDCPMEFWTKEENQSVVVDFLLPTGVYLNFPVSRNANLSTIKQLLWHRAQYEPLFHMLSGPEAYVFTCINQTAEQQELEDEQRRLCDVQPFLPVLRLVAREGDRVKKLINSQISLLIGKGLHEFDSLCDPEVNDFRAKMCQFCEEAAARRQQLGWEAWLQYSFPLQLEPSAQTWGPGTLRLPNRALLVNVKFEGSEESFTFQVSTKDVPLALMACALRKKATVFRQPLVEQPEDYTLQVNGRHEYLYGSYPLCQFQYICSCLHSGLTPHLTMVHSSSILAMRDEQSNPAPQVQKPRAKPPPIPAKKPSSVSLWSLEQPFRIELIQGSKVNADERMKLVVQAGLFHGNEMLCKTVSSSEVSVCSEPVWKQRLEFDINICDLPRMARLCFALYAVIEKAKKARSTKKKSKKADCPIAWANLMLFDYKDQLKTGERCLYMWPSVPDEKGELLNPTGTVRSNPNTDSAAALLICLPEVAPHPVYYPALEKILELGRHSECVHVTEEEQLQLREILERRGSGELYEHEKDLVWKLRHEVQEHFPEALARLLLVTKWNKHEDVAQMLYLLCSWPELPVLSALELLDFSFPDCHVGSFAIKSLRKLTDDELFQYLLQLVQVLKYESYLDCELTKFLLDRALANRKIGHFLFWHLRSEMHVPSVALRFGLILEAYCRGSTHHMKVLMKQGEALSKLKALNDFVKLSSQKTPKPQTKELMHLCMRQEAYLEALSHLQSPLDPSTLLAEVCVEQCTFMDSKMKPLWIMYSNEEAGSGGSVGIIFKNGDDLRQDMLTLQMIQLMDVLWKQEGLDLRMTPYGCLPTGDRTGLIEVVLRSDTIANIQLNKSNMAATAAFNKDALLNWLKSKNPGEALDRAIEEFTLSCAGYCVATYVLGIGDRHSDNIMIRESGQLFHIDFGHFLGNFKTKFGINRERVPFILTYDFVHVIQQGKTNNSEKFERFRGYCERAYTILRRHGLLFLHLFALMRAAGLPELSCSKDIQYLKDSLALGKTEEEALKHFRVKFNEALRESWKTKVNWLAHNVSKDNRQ
T1 sequence (P27986 whole entry partner): as the sequence (P27986 whole entry partner) above

On to `O=C1N[C@@H](CO)[C@H](c2ccc(Cl)c(Cl)c2)c2cc(N3CCOCC3)sc21` (relative stereo) [Compound 192, rel-(4R,5R)-4-(3,4-dichlorophenyl)-5-(hydroxymethyl)-2-(morpholin-4-yl)-5,6-dihydrothieno[2,3-c]pyridin-7(4H)-one], for which the inhibition at 1.11 µM at PI3Kdelta came to 105%; on PI3Kalpha, 39.6%; at PI3Kbeta it was 106%; on PI3Kgamma it was 52.9%.

On to `O=C1CC(c2ccc3ccccc3c2)c2cc(N3CCOCC3)sc21` (stereo not shown) [Compound 119], for which the inhibition at 1.11 µM was found to be 99.8% on PI3Kdelta, 42.4% at PI3Kalpha, 107% at PI3Kbeta and 60.3% at PI3Kgamma.

For the compound `O=C1N[C@@H](C(=O)NCCCO)[C@H](c2ccc(Cl)cc2)c2cc(N3CCOCC3)sc21` [Compound 170], the inhibition at 1.11 µM was 51.6% at PI3Kdelta and 12.5% at PI3Kgamma. This compound showed a PI3Kalpha % inh on PI3Kalpha of 22.53%. The compound further showed a PI3Kbeta % inh on PI3Kbeta of 83.73%.

Compound `CCCOC(=O)[C@@H]1NC(=O)c2sc(N3CCOCC3)cc2[C@H]1c1ccc(Cl)cc1` [Compound 136] displayed a PI3Kdelta % inh at PI3Kdelta (at 1.11 μM) of 35.35%. In addition, the PI3Kalpha % inh at PI3Kalpha is recorded as 17.00%. Moreover, the PI3Kbeta % inh at PI3Kbeta came to 87.47%. This compound also gave a PI3Kgamma % inh on PI3Kgamma (at 1.11 μM) of 4.11%.

Consider `CNC(=O)[C@@H]1NC(=O)c2sc(N3CCOCC3)cc2[C@H]1c1ccc(Cl)cc1` [Compound 123], for which the inhibition at 1.11 µM stood at 49.6% on PI3Kdelta and 10.4% on PI3Kgamma. This compound also returned a PI3Kalpha % inh at PI3Kalpha of 32.28%. The compound also showed a PI3Kbeta % inh at PI3Kbeta of 101.46%.

Take `N#Cc1c(N2CCOCC2)sc2c1C(c1c(F)cc(Cl)cc1F)CNC2=O` (stereo not shown) [Compound 151]: the inhibition at 1.11 µM at PI3Kdelta was 90%; at PI3Kalpha, 43.1%; at PI3Kbeta, 103%; on PI3Kgamma it was 41%.

Regarding `CC(C)NC(=O)[C@@H]1NC(=O)c2sc(N3CCOCC3)cc2[C@H]1c1ccc(Cl)cc1` [Compound 162], the inhibition at 1.11 µM at PI3Kdelta was 41.8%; on PI3Kalpha it was 7.94%; on PI3Kbeta, 70.6%; on PI3Kgamma it was 3.59%.

In the case of `O=C1NCC(c2ccc(Cl)c(Cl)c2)c2cc(N3CCOCC3)sc21` (stereo not shown) [Compound 176, 4-(3,4-dichlorophenyl)-2-morpholino-5,6-dihydrothieno[2,3-c]pyridin-7(4H)-one], the inhibition at 1.11 µM on PI3Kdelta is 108%; on PI3Kgamma, 60.1%. At PI3Kalpha, this compound showed a PI3Kalpha % inh of 28.06%. At PI3Kbeta, this compound showed a PI3Kbeta % inh of 105.20%.

In the case of `O=C1N[C@@H](C(=O)NCCO)[C@H](c2ccc(Cl)cc2)c2cc(N3CCOCC3)sc21` [Compound 153], the figures for the inhibition at 1.11 µM at PI3Kdelta and on PI3Kgamma were 39.8% and 9.08%, respectively. Besides, the PI3Kalpha % inh on PI3Kalpha is given as 20.40%. The compound further showed a PI3Kbeta % inh on PI3Kbeta of 87.14%.

Turning to `O=C1N[C@@H](CO)[C@H](c2ccc(Cl)cc2)c2cc(N3CCOCC3)sc21` [Compound 133], the inhibition at 1.11 µM on PI3Kdelta is 102%; on PI3Kalpha, 35%; at PI3Kbeta, 110%; on PI3Kgamma it was 30.7%.

With `N#Cc1c(N2CCOCC2)sc2c1C(c1ccc3ccccc3c1)NC2=O` (stereo not shown) [Compound 169], the inhibition at 1.11 µM at PI3Kdelta is 98.2%; at PI3Kalpha, 50.6%; on PI3Kbeta, 99.7%; on PI3Kgamma, 71.3%.

Take `O=C1NCCC(c2ccc3ccccc3c2)c2cc(N3CCOCC3)sc21` (stereo not shown) [Compound 175]: the inhibition at 1.11 µM at PI3Kdelta came out at 112%; on PI3Kalpha, 66.9%; at PI3Kbeta it was 112%; on PI3Kgamma it was 43.8%.

As to `N#Cc1c(N2CCOCC2)sc2c1C(c1ccc(Cl)cc1)CCNC2=O` (stereo not shown) [Compound 150], the inhibition at 1.11 µM on PI3Kdelta worked out at 99.9%; at PI3Kalpha, 26.8%; on PI3Kbeta, 108%; on PI3Kgamma it was 21.5%.
